Laboratory results published in US12037583B2, “Compositions and methods for immunooncology” (Novartis AG, priority 2015, dated 2024).

Experiments:
CD3E = experiment: NGS editing and frameshift edit of CD3E by dgRNA in HEK-293(Cas9) cells; assay type: cell-based, human; settings: dgRNA to CD3E in HEK-293(Cas9) cells
Description: Transfection of Cas9GFP-expressing HEK293 cells (HEK-293_Cas9GFP) was used for primary screening of target specific crRNAs. In this example, target specific crRNAs were designed and selected for primary screening using defined criteria including in silico off-target detection, e.g., as described herein. Selected crRNAs were chemically synthesized and delivered in a 96 well format. HEK-293-Cas9GFP cells were transfected with target crRNAs comprising a flagpole region of SEQ ID NO: 6607 in a 1:1 ratio with stock trRNA of SEQ ID NO: 6660. The transfection was mediated using lipofection technology according to manufacturer's protocol (DharmaFECT Duo, GE LifeSciences; or RNAiMax, LifeTechnologies). Transfected cells were lysed 24 h following lipofection and editing (e.g., cleavage) was detected within lysates with the T7E1 assay and/or next generation sequencing (NGS; below).
PCR primers were first designed around the target site, and the genomic area of interest PCR amplified. Additional PCR was performed according to manufacturer's protocols (Illumina) to add the necessary chemistry for sequencing. The amplicons were then sequenced on an Illumina MiSeq instrument. The reads were then aligned to the human reference genome (e.g., hg38) after eliminating those having low quality scores. From the resulting files containing the reads mapped to the reference genome (BAM files), reads which overlap the target region of interest were selected and the number of wild type reads versus the number of reads which contain an insertion or deletion was calculated. The editing percentage was then defined as the total number of reads with insertions or deletions over the total number of reads, including wild type. To determine the pattern of insertions and/or deletions that resulted from the edit, the aligned reads with indels were selected and the number of a reads with a given indel were summed.
dgRNA molecules comprising the indicated targeting domain were chemically synthesized, and editing assessed in HEK-293 cells by NGS as described in Example 1. […] Several gRNA molecules were able to edit more than 50% of the cells, including producing a frameshift mutation in more than 50% of the cells.

CIITA [1] = experiment: NGS editing and frameshift edit of CIITA by dgRNA in HEK293 cells expressing Cas9; assay type: cell-based, human; settings: HEK293 cells stably expressing Cas9, dgRNA to CIITA; for Avg. % Edit: N = 3; for Avg. % FS: frameshift edit
Description: Editing of CIITA with dgRNAs targeted to the CIITA gene were assayed in HEK293 cells engineered to express Cas9, as described above in Example 1.

CIITA [2] = experiment: NGS editing and frameshift edit of CIITA in CD3+ primary human T cells (RNP); assay type: cell-based; settings: dgRNA targeting CIITA delivered as RNP to CD3+ T cells
Description: The frequency of insertions or deletions is indicated (% indels) and the percentage of these edits that result in frameshifting of the coding sequence is shown (% frameshift edits).
PBMC were isolated from human blood (Hemacare) by using centrifugation method using Ficoll. […] These cells were aliquoted and frozen. These frozen cell aliquots were then thawed and activated using CD3/CD28 beads (DynaBeads Invitrogen Cat #111.41D) at bead to cell ratio of 3:1. On day 2 or day 3 after bead activation, 200,000 cells were removed from culture for electroporation. […] Next 1 μL of 100 μM crRNA was added, mixed and incubated for 10 min at 37° C. If more than one RNP was added during the electroporation step, each RNP with a crRNA targeting a different gene was assembled separately using the above method, then combined together with the addition of Cas9 buffer in order to obtain different RNP final concentrations for different conditions. For “triple editing”, i.e. simultaneous addition of 3 RNPs targeting different genes, details of RNP quantities are provided in the figures. The assembled RNPs were then mixed with 200,000 cells in 10 ul of T Buffer (neon transfection system 10 ul Kit). Electroporation was performed by Neon electroporator using Neon® Transfection System 10 μL Kit (MPK1096) at 1600V, 10 ms, 3 pulses. […] To evaluate the editing frequency and sequence changes resulting from gene editing in the above prepared T cells, genomic DNA was isolated and subjected to sequencing. Briefly, frozen cell pellets were thawed and processed using DNeasy Blood & Tissue Kit (Qiagen, 69506) to isolate genomic DNA. Eluted DNA was used to run PCR using Titanium Taq PCR kit (Clontech Laboratories, 639211) and primers in Table 27.
PCR product was purified using QIAquick PCR Purification Kit (Qiagen, 28104). […] PCR amplicons were subjected to standard Nextera NGS library prep (Illumina) and sequenced with paired-end reads on an Illumina MiSeq sequencer.

TRAC = experiment: Editing of TRAC by dgRNAs in HEK cells stably expressing Cas9 (NGS); assay type: cell-based, human; settings: dgRNA delivered to HEK cells stably expressing Cas9, target TRAC, mean of at least 3 experiments
Description: (§1) FIG. 12: Mean (n≥3) editing of CRISPR systems with dgRNAs as indicated to TRAC in HEK cells (stably expressing Cas9) or primary human CD3+ T cells (delivery of dgRNA:Cas9 RNP by electroporation).

TRAC locus = experiment: Genomic editing of the TRAC locus in primary human CD3+ T cells by RNP electroporation (NGS: % indels, % frameshift edits, indel pattern); assay type: cell-based; settings: dgRNA/Cas9 RNP by electroporation, target TRAC; for mean FS edit (%): frameshift edits in primary human CD3+ T cells; for mean total % edit: primary human CD3+ T cells, mean of at least 3 experiments;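 on all read-outs here: total edit is the insertion or deletion frequency at TRAC, and the frameshift value is the share of those indels that shift the coding frame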
Description: as §1
FIG. 33C: Genomic editing of the TRAC locus resulting from human primary T cell electroporation with RNP containing the indicated gRNA targeting the TRAC locus is shown. The frequency of insertions or deletions is indicated (% indels) and the percentage of these edits that result in frameshifting of the coding sequence is shown (% frameshift edits).
Data for each experiment are the average from triplicate PCR products.

CR002230 (guide AGGCCUCUCUACUUCCUGUG; targeting domain within dual guide RNA, chemistry not given here, further chemistry not given here; listed as Homo sapiens)
Avg. % Edit (any indel) (CD3E): 20.64%
Avg. Frameshift % (CD3E): 20.10%

CR002231 (guide GGCCUCUCUACUUCCUGUGU; targeting domain within dual guide RNA, chemistry not given here, further chemistry not given here; listed as Homo sapiens)
Avg. % Edit (any indel) (CD3E): 13.83%
Avg. Frameshift % (CD3E): 12.37%

CR002976 (guide AUAGAAGUGGUAGAGGCACA; chemistry not given here; listed as Homo sapiens)
Avg. % Edit (CIITA [1]): 45.36%
Avg. % FS (CIITA [1]): 37.66%
Editing % (CIITA [2]): 4.0%
Frameshift Edit % (CIITA [2]): 3.6%

CR002978 (guide UCUGGUCAUAGAAGUGGUAG; chemistry not given here; listed as Homo sapiens)
Avg. % Edit (CIITA [1]): 38.34%
Avg. % FS (CIITA [1]): 34.11%
Editing % (CIITA [2]): 4.7%
Frameshift Edit % (CIITA [2]): 2.7%

CR002980 (guide GGUCCAUCUGGUCAUAGAAG; chemistry not given here; listed as Homo sapiens)
Avg. % Edit (CIITA [1]): 50.30%
Avg. % FS (CIITA [1]): 42.41%
Editing % (CIITA [2]): 6.1%
Frameshift Edit % (CIITA [2]): 3.6%

CR002992 (guide UGGAAGGUGAUGAAGAGACC; chemistry not given here; listed as Homo sapiens)
Avg. % Edit (CIITA [1]): 46.54%
Avg. % FS (CIITA [1]): 31.23%
Editing % (CIITA [2]): 16.0%
Frameshift Edit % (CIITA [2]): 11.6%

CR002993: dgRNA targeting domain to CIITA (guide GGAAGGUGAUGAAGAGACCA; chemistry not given here; listed as Homo sapiens)
Avg. % Edit (CIITA [1]): 60.16%
Avg. % FS (CIITA [1]): 48.86%
Editing % (CIITA [2]): 33.8%
Frameshift Edit % (CIITA [2]): 27.2%

CR002994 (guide AGGUGAUGAAGAGACCAGGG; chemistry not given here; listed as Homo sapiens)
Avg. % Edit (CIITA [1]): 42.35%
Avg. % FS (CIITA [1]): 31.32%
Editing % (CIITA [2]): 22.0%
Frameshift Edit % (CIITA [2]): 18.1%

CR002995 (guide GAUAUUGGCAUAAGCCUCCC; chemistry not given here; listed as Homo sapiens)
Avg. % Edit (CIITA [1]): 52.74%
Avg. % FS (CIITA [1]): 43.64%
Editing % (CIITA [2]): 3.1%
Frameshift Edit % (CIITA [2]): 2.5%

CR003001 (guide UUCCAGGACUCCCAGCUGGA; chemistry not given here; listed as Homo sapiens)
Avg. % Edit (CIITA [1]): 47.64%
Avg. % FS (CIITA [1]): 43.30%
Editing % (CIITA [2]): 36.3%
Frameshift Edit % (CIITA [2]): 32.0%

CR003007: dgRNA targeting domain to CIITA (guide AUAGGACCAGAUGAAGUGAU; chemistry not given here; listed as Homo sapiens)
Avg. % Edit (CIITA [1]): 43.64%
Avg. % FS (CIITA [1]): 32.22%
Editing % (CIITA [2]): 31.6%
Frameshift Edit % (CIITA [2]): 28.8%

CR003013 (guide UGCCGGAAGCUCCUCUGGGA; chemistry not given here; listed as Homo sapiens)
Avg. % Edit (CIITA [1]): 37.75%
Avg. % FS (CIITA [1]): 29.94%
Editing % (CIITA [2]): 11.5%
Frameshift Edit % (CIITA [2]): 9.0%

UCAAGGCCCCUCACCUCAGC (chemistry not given here; listed as Homo sapiens) [CR000995]
mean % edit (TRAC): 23.2%
mean FS edit (%) (TRAC locus): 2.5%
mean total % edit (TRAC locus): 1.9%

UCCUCCUCCUGAAAGUGGCC (chemistry not given here; listed as Homo sapiens) [CR000988]
mean % edit (TRAC): 41.9%
mean FS edit (%) (TRAC locus): 17.4%
mean total % edit (TRAC locus): 22.3%

UCUGUUGCUUAUAAGCUUCU (chemistry not given here; listed as Homo sapiens) [CR000946]
mean % edit (TRAC): 65.9%
mean FS edit (%) (TRAC locus): 9.2%
mean total % edit (TRAC locus): 9.8%

UGCUCACAGGUCCCUGCUGC (chemistry not given here; listed as Homo sapiens) [CR000925]
mean % edit (TRAC): 56.9%
mean FS edit (%) (TRAC locus): 12.3%
mean total % edit (TRAC locus): 19.1%

UGCUCAUGACGCUGCGGCUG (chemistry not given here; listed as Homo sapiens) [CR000994]
mean % edit (TRAC): 46.9%
mean FS edit (%) (TRAC locus): 10.8%
mean total % edit (TRAC locus): 21.5%

UGGUGUCAUAUGUGCAGCUC (chemistry not given here; listed as Homo sapiens) [CR000939]
mean % edit (TRAC): 27.7%
mean FS edit (%) (TRAC locus): 12.1%
mean total % edit (TRAC locus): 13.5%

UUCAAAACCUGUCAGUGAUU (chemistry not given here; listed as Homo sapiens) [CR000983]
mean % edit (TRAC): 59.8%
mean FS edit (%) (TRAC locus): 18.2%
mean total % edit (TRAC locus): 26.6%

UUGCCGGGGGGGCACAGAGG (chemistry not given here; listed as Homo sapiens) [CR001013]
mean % edit (TRAC): 29.7%
mean FS edit (%) (TRAC locus): 17.6%
mean total % edit (TRAC locus): 19.6%

UUUCAAAACCUGUCAGUGAU (chemistry not given here; listed as Homo sapiens) [CR000982]
mean % edit (TRAC): 48.1%
mean FS edit (%) (TRAC locus): 23.2%
mean total % edit (TRAC locus): 28.5%
